From patent US20240327361A1, “RADIOLABELED COMPOSITIONS AND METHODS OF USE THEREOF” (The Research Foundation for the State University of New York, priority 2021, published 2024) come the findings set out here.

Each structure is given as a SMILES string. A value given as a limit tells only on which side of the number the result lay.

One data set deals with Class-I HDAC. Put plainly: Cell-based deacetylase assay in HT-29 cells, class-I/IIb selective substrate Boc-Lys-Ac. The following applies: whole-cell assay, 200 μM Boc-Lys-Ac (class-I/IIb selective substrate), 3 h at 37° C. On the procedure:
(§1) Cell-based deacetylase assay. The cell-based assay was conducted similar to the previous work (Lobera M 2013; Luckhurst C A 2019) Briefly, compounds were diluted in 5 uL DMSO (11-point concentration curve, 5% final DMSO) and were added to 96 wells with positive (5 μM Trichostatin A (TSA)) and negative control (5 uL DMSO) wells. HT-29 cells (obtained from ATCC) with the addition of either 100 μM Boc-Lys-TFA (class-IIa selective substrate) or 200 μM Boc-Lys-Ac (class-I/IIb selective substrate) were plated into 96 well plates at 200,000 cells/well in 45 uL cellular assay buffer (RPMI without phenol red, 0.1% Fetal Bovine Serum) and were incubated for 3 h at 37° C. The deacetylation achieved by the addition of 50 uL HDAC developer solution (2.5 mg/ml trypsin in DMEM without Fetal Bovine Serum and 10% tween 80) for a further 1 h to sensitize the substrate and to lyse the cells. Fluorescent counts were read with microplate reader at an excitation wavelength of 360 nm and detection of emitted light of 460 nm.

Another data set relates to Class-lla HDAC. Put plainly: Cell-based deacetylase assay in HT-29 cells, class-IIa selective substrate Boc-Lys-TFA. Conditions: whole-cell assay, 100 μM Boc-Lys-TFA (class-IIa selective substrate), 3 h at 37° C. On the procedure: as §1, with “The cell-based assay was conducted similar to the previous work (Lobera M 2013; Luckhurst C A 2019) Briefly, compounds were diluted in 5 uL DMSO (11-point concentration curve, 5% final DMSO) and were added to 96 wells with positive (5 μM Trichostatin A (TSA)) and negative control (5 uL DMSO) wells.” left out

For a further data set, the system named is class-lla HDACs. The data set is described as follows: In vivo microPET imaging of healthy rats (biodistribution, self-blocking with cold TMP195). The arrangement: species or system Sprague Dawley rats. Conditions: rat brain PET. On the procedure: Sprague Dawley rats (200-250 g, N=3,) were anesthetized with 3% isoflurane in oxygen and maintained at 2% isoflurane in oxygen throughout the imaging studies. Anesthetized rat was placed in the uPET (Siemens, Knoxville, TN) with the skull positioned in the center of the field of view. The tracer (500-700 μCi/animal) was administered intravenously into each Rat (n=3 per group) in a total volume 0.5-1.0 ml solution. Dynamic PET images were obtained over 60 minutes. Images were reconstructed with attenuation correction using an ordered subset expectation maximization (OSEM2D) algorithm with 16 subsets and 4 iterations.
Dynamic PET images were analyzed with Inveon Research Workplace 4.0 (Siemens, Knoxville, TN) and AMIDE software using manual segmentation of regions of interest (ROI), were drawn over ROI on the decay-corrected coronal images. The radioactivity accumulation (tracer uptake) within the ROI were obtained as percentage of the injected dose (ID) per gram of tissue (% ID/g). The time-activity curve (TAC) was generated from the region of interest (ROI) by plotting the radioactivity/cc vs time.
Anesthetized Sprague Dawley rats (200-250 g, N=6) were placed in the Inveon uPET (Siemens, Knoxville, TN) in the supine position with the skull positioned in the center of the field of view. [^18F]-NT160 was formulated in ethanol:polysorbate 80:saline (10:10:80%) and it was stable in this formulation at 37° C. at least for 4 hours. [^18F]-NT160 (18.5-25.9 MBq/animal) was administered via the tail-vein injection in a total volume 0.5-1.0 ml. Dynamic PET images were obtained over 60 minutes followed by CT imaging (15 min scan). Images were reconstructed with attenuation correction using an ordered subset expectation maximization (OSEM2D) algorithm with 16 subsets and 4 iterations. PET image analysis was performed using the AMIDE software by using manual segmentation of regions of interest (ROI), including: whole brain, cortex, hippocampus, thalamus, cerebellum, and brain stem. Rat Brain Atlas was used for alignment and identification of specific anatomical markers of the brain. The time-activity curve (TAC) was generated from the region of interest (ROI) by plotting the radioactivity/cc vs time. Levels of accumulation of the radiotracer in tissues were expressed as standard uptake values (SUV) that were calculated for the regions of interest (ROI) using the AMIDE software. The SUV is defined as the ratio of the tissue radioactivity concentration C (e.g. expressed as Bq/g tissue) at given time point post injection T, and the injected dose (e.g. in Bq, decay-corrected to the same time T), and normalized by the body weight in grams. GraphPad Prism (Graph Pad Software La Jolla, CA) was used for image data analysis. [^18F]-NT2-160 was also prepared by the same or similar procedure.

Regarding `O=C(NC1CCN(CCc2ccccc2)C1)c1ccc(-c2noc(C(F)(F)F)n2)cc1` (stereo not shown) [NT3-106C], the IC50 (as a rule, the concentration needed to halve the response being measured) with Class-I HDAC was more than 50000 nM; with Class-lla HDAC it was more than 10000 nM.

Consider `C[C@H](NC(=O)c1ccc(-c2noc(C(F)(F)F)n2)cc1)C(=O)N1CC[C@H](c2ccccc2)C1` [NT3-52B], for which the results for the IC50 with Class-I HDAC and in the data set with Class-lla HDAC were more than 50000 nM and more than 1000 nM, respectively.

Consider `O=C(NC1CCN(Cc2ccccc2)C1)c1ccc(-c2noc(C(F)(F)F)n2)cc1F` (stereo not shown) [NT3-77], for which the IC50 was more than 10000 nM in the data set on Class-I HDAC and 152 nM in the data set on Class-lla HDAC.

Take `CN(Cc1ccccc1)C(=O)CCNC(=O)c1ccc(-c2noc(C(F)(F)F)n2)cc1` [NT-174]: the results for the IC50 with Class-I HDAC and in the data set with Class-lla HDAC were more than 15000 nM and 905 ± 220 nM, respectively.

Regarding `O=C(NC1CCN(Cc2ccccc2F)C1)c1ccc(-c2noc(C(F)(F)F)n2)cc1` (stereo not shown) [NT3-132B], the 50% inhibitory concentration (IC50) in the data set on Class-I HDAC was more than 50000 nM; in the data set with Class-lla HDAC, 300 nM.

Take `C[C@H](CN(C)Cc1ccccc1)NC(=O)c1ccc(-c2noc(C(F)(F)Cl)n2)cc1` [NT3-89B]: the half-maximal inhibitory concentration (IC50) in the data set with Class-I HDAC and in the data set with Class-lla HDAC was more than 2000 nM throughout.

As for `O=C(NC1CCN(Cc2ccc(F)cc2)C1)c1ccc(-c2noc(C(F)(F)F)n2)cc1` (stereo not shown) [NT3-40], the IC50 in the data set on Class-I HDAC was more than 20000 nM; in the data set on Class-lla HDAC it was 142 nM.

For `COC[C@@H](NC(=O)c1ccc(-c2noc(C(F)(F)F)n2)cc1)C(=O)NCc1ccccc1` [NT-176], the 50% inhibitory concentration (IC50) was more than 15000 nM in the data set with Class-I HDAC and 537 ± 150 nM with Class-lla HDAC.

On to `CC(C)(CNC(=O)c1ccc(-c2noc(C(F)(F)F)n2)cc1)c1coc(-c2ccccc2)n1` [NT-134], for which the 50% inhibitory concentration (IC50) with Class-I HDAC was more than 15000 nM; in the data set with Class-lla HDAC, more than 5000 nM.

Take `CCN1CCC(NC(=O)c2ccc(-c3noc(C(F)(F)F)n3)cc2F)C1` (stereo not shown) [NT3-81]: the half-inhibitory concentration (IC50) was more than 5000 nM in the data set on Class-I HDAC and 137 nM in the data set with Class-lla HDAC.

`C[C@@H](CN1CC[C@H](c2ccccc2)C1)NC(=O)c1ccc(-c2noc(C(F)(F)F)n2)cc1` [NT3-16D]: the results for the half-maximal inhibitory concentration (IC50) in the data set on Class-I HDAC and in the data set on Class-lla HDAC were more than 25000 nM and 5 nM, respectively.

As for `O=C(NC1CCN(Cc2ccccc2)C1)c1ccc(-c2noc(C(F)(F)[18F])n2)cc1` (stereo not shown) [[^18F]-NT2-160], the “biodistribution / uptake in brain regions” value with class-lla HDACs was “heterogenous”.

In the case of `COC[C@@H](NC(=O)c1ccc(-c2noc(C(F)(F)F)n2)nc1)C(=O)NCc1ccccc1` [NT-192], the IC50 in the data set on Class-I HDAC was more than 15000 nM; in the data set with Class-lla HDAC, 1710 ± 330 nM.

Regarding `CC(C)(NCc1ccccc1)C(=O)CNC(=O)c1ccc(-c2noc(C(F)(F)F)n2)cc1` [NT2-44], the IC50 in the data set with Class-I HDAC is more than 15000 nM; in the data set with Class-lla HDAC, 768 ± 190 nM.

On to `CN(Cc1ccccc1)C(=O)C(C)(C)CNC(=O)c1ccc(-c2noc(C(F)(F)F)n2)cc1` [NT3-119], for which the concentration for half-maximal inhibition (IC50) with Class-I HDAC was more than 15000 nM; in the data set on Class-lla HDAC, 933 ± 260 nM.

For `O=C(NC1CCCN(Cc2ccccc2)C1)c1ccc(-c2noc(C(F)(F)F)n2)cc1` (stereo not shown) [NT2-190], the IC50 in the data set with Class-I HDAC was more than 50000 nM; in the data set with Class-lla HDAC, more than 10000 nM.

Consider `O=C(NC1CCN(Cc2ccccc2I)C1)c1ccc(-c2noc(C(F)(F)F)n2)cc1` (stereo not shown) [NT3-127B], for which the IC50 in the data set on Class-I HDAC was more than 50000 nM; in the data set with Class-lla HDAC, 1000 nM.

For `O=C(NC1CCN(CCF)C1)c1ccc(-c2noc(C(F)(F)F)n2)cc1` (stereo not shown) [NT3-123], the half-inhibitory concentration (IC50) with Class-I HDAC was more than 50000 nM; in the data set with Class-lla HDAC it was more than 10000 nM.

For `CCN1CC[C@@H](NC(=O)c2ccc(-c3noc(C(F)(F)Cl)n3)cc2)C1` [NT3-92], the figures for the 50% inhibitory concentration (IC50) in the data set on Class-I HDAC and in the data set on Class-lla HDAC were more than 50000 nM and more than 20000 nM, respectively.

As for `O=C(NC1CCN(c2ccccc2)C1)c1ccc(-c2noc(C(F)(F)F)n2)cc1` (stereo not shown) [NT2-174], the IC50 with Class-I HDAC was more than 50000 nM; with Class-lla HDAC, more than 20000 nM.

On to `O=C(NC1CCN(Cc2ccc(I)cc2)C1)c1ccc(-c2noc(C(F)(F)F)n2)cc1` (stereo not shown) [NT3-39], for which the concentration for half-maximal inhibition (IC50) in the data set on Class-I HDAC was more than 50000 nM; in the data set on Class-lla HDAC it was 295 nM.

With `O=C(NC1CCN(Cc2ccccc2F)C1)c1ccc(-c2noc(C(F)(F)F)n2)cc1F` (stereo not shown) [NT3-77A], the half-maximal inhibitory concentration (IC50) was more than 10000 nM in the data set on Class-I HDAC and 179 nM with Class-lla HDAC.

Consider `O=C(NC1CCN(Cc2cccc(F)c2)C1)c1ccc(-c2noc(C(F)(F)F)n2)cc1F` (stereo not shown) [NT3-77B], for which the values for the half-maximal inhibitory concentration (IC50) in the data set on Class-I HDAC and with Class-lla HDAC were more than 10000 nM and 195 nM, respectively.

Regarding `C[C@H](CN(C)Cc1ccccc1)NC(=O)c1ccc(-c2noc(C(F)(F)F)n2)cc1F` [NT3-76], the half-inhibitory concentration (IC50) is more than 5000 nM with Class-I HDAC and 32 nM in the data set on Class-lla HDAC.

`C[C@@H](NC(=O)c1ccc(-c2noc(C(F)(F)F)n2)cc1)C(=O)NCc1ccccc1` [NT2-67]: the figures for the IC50 in the data set with Class-I HDAC and in the data set with Class-lla HDAC were more than 15000 nM and 953 nM, respectively.

On to `CCN1CCC(NC(=O)c2ccc(-c3noc(C(F)(F)F)n3)cc2)C1` (stereo not shown) [NT3-83], for which the IC50 is more than 9000 nM in the data set on Class-I HDAC and 91 nM in the data set with Class-lla HDAC.

In the case of `COC[C@@H](NC(=O)c1ccc(-c2noc(C(F)(F)F)n2)cc1)C(=O)NCc1ccc(F)cc1` [NT2-156], the half-inhibitory concentration (IC50) in the data set with Class-I HDAC was more than 15000 nM; in the data set on Class-lla HDAC, 233 ± 110 nM.

Consider `CN(Cc1ccccc1)C(=O)CCNC(=O)c1cccc(-c2noc(C(F)(F)F)n2)c1` [NT-175], for which the IC50 in the data set with Class-I HDAC and with Class-lla HDAC was more than 50000 nM throughout.

Consider `CN(Cc1ccccc1)C(=O)C(C)(C)CNC(=O)c1cccc(-c2noc(C(F)(F)F)n2)c1` [NT3-118], for which the IC50 with Class-I HDAC and in the data set with Class-lla HDAC was more than 50000 nM in each case.

In the case of `O=C(NC1CCN(Cc2ccc(F)cc2)C1)c1ccc(-c2noc(C(F)(F)F)n2)cc1F` (stereo not shown) [NT3-77C], the IC50 was more than 10000 nM with Class-I HDAC and 173 nM in the data set with Class-lla HDAC.

As to `CN1CCC(NC(=O)c2ccc(-c3noc(C(F)(F)F)n3)cc2F)C1` (stereo not shown) [NT3-75], the 50% inhibitory concentration (IC50) was more than 3000 nM in the data set with Class-I HDAC and 72 nM with Class-lla HDAC.

As to `O=C(NC1CCN(Cc2ccccc2)C1)c1ccc(-c2noc(C(F)(F)F)n2)cc1` (stereo not shown) [NT2-160], the half-maximal inhibitory concentration (IC50) in the data set on Class-I HDAC is more than 20000 nM.

As to `O=C(NC1CCN(CCc2ccccc2F)C1)c1ccc(-c2noc(C(F)(F)F)n2)cc1` (stereo not shown) [NT3-102C], the figures for the IC50 in the data set on Class-I HDAC and with Class-lla HDAC were more than 50000 nM and more than 10000 nM, respectively.

`C[C@H](CN(C)Cc1ccc(F)cc1)NC(=O)c1ccc(-c2noc(C(F)(F)F)n2)cc1` [NT3-11D]: the IC50 is more than 15000 nM in the data set on Class-I HDAC and 59 ± 16 nM with Class-lla HDAC.

On to `CC(CN(C)Cc1ccccc1)NC(=O)c1ccc(-c2noc(C(F)(F)F)n2)cc1` (stereo not shown) [NT2-191], for which, in the data set with Class-I HDAC, the concentration for half-maximal inhibition (IC50) was more than 50000 nM.
